Data taken from ChEMBL document CHEMBL1141332, “Cytotoxic metabolites from an Indonesian sponge Lendenfeldia sp” (J Nat Prod, 2007).

Experiments:
Assay type in all cases: functional
[1] = system: HL-60; assay: Cytotoxicity against human HL60 cells; settings: Homo sapiens, HL-60
[2] = system: K562; assay: Cytotoxicity against human K562 cells
[3] = system: MOLT-4; assay: Cytotoxicity against human MOLT4 cells
[4] = system: RPMI-8226; assay: Cytotoxicity against human RPMI8226 cells
[5] = system: A549; assay: Cytotoxicity against human A549 cells
[6] = system: HOP-62; assay: Cytotoxicity against human HOP62 cells
[7] = system: HOP-92; assay: Cytotoxicity against human HOP92 cells
[8] = system: NCI-H226; assay: Cytotoxicity against human NCI-H226 cells
[9] = system: NCI-H23; assay: Cytotoxicity against human NCI-H23 cells
[10] = system: NCI-H322M; assay: Cytotoxicity against human NCI-H322M cells
[11] = system: NCI-H460; assay: Cytotoxicity against human NCI-H460 cells
[12] = system: NCI-H522; assay: Cytotoxicity against human NCI-H522 cells
[13] = system: LOX IMVI; assay: Cytotoxicity against human LOX IMVI cells
[14] = system: COLO 205; assay: Cytotoxicity against human COLO205 cells
[15] = system: HCC 2998; assay: Cytotoxicity against human HCC2998 cells
[16] = system: HCT-116; assay: Cytotoxicity against human HCT116 cells
[17] = system: HCT-15; assay: Cytotoxicity against human HCT15 cells
[18] = system: HT-29; assay: Cytotoxicity against human HT29 cells
[19] = system: KM12; assay: Cytotoxicity against human KM12 cells
[20] = system: SF-268; assay: Cytotoxicity against human SF268 cells
[21] = system: SF-539; assay: Cytotoxicity against human SF539 cells
[22] = system: SNB-19; assay: Cytotoxicity against human SNB19 cells; settings: read-out: Log LC50 (the source's name) (converted)
[23] = system: SNB-75; assay: Cytotoxicity against human SNB75 cells
[24] = system: U-251; assay: Cytotoxicity against human U251cells
[25] = system: SK-MEL-28; assay: Cytotoxicity against human SK-MEL-28 cells
[26] = system: UACC-257; assay: Cytotoxicity against human UACC257 cells
[27] = system: UACC-62; assay: Cytotoxicity against human UACC62 cells
[28] = system: IGROV-1; assay: Cytotoxicity against human IGROV1 cells
[29] = system: OVCAR-3; assay: Cytotoxicity against human OVCAR-3 cells
[30] = system: OVCAR-4; assay: Cytotoxicity against human OVCAR4 cells
[31] = system: OVCAR-5; assay: Cytotoxicity against human OVCAR5 cells
[32] = system: OVCAR-8; assay: Cytotoxicity against human OVCAR8 cells
[33] = system: SK-OV-3; assay: Cytotoxicity against human SK-OV-3 cells
[34] = system: 786-0; assay: Cytotoxicity against human 786-0 cells
[35] = system: SN12C; assay: Cytotoxicity against human SN12C cells
[36] = system: TK-10; assay: Cytotoxicity against human TK10 cells
[37] = system: PC-3; assay: Cytotoxicity against human PC3 cells
[38] = system: DU-145; assay: Cytotoxicity against human DU145 cells
[39] = system: MCF7; assay: Cytotoxicity against human MCF7 cells
[40] = system: NCI/ADR-RES; assay: Cytotoxicity against human NCI/ADR-RES cells
[41] = system: MDA-MB-231; assay: Cytotoxicity against human MDA-MB-231 cells
[42] = Cytotoxicity against human HS578T cells; settings: Hs-578T
[43] = system: MDA-MB-435; assay: Cytotoxicity against human MDA-MB-435 cells
[44] = system: BT-549; assay: Cytotoxicity against human BT549 cells
[45] = system: T47D; assay: Cytotoxicity against human T47D cells
[46] = read-out: Log LC50 (the source's name) (converted)

## CC(=O)C1=CC[C@H]2[C@]3(C)CC[C@H]4C(C)(C)CCC[C@]4(C(=O)O)[C@H]3CC(=O)[C@]2(C)[C@H]1C=O
[1]
  GI50: 0.282 µM
[1]; [46]
  CC50: 6.31 µM
[1]; read-out: Log TGI (converted)
  TGI: 1.38 µM
[2]
  GI50: 2.04 µM
[2]; [46]
  CC50: 20.9 µM
[2]; read-out: Log TGI (converted)
  TGI: 5.01 µM
[3]
  GI50: 0.257 µM
[3]; [46]
  CC50: 4.47 µM
[3]; read-out: Log TGI (converted)
  TGI: 0.912 µM
[4]
  GI50: 0.603 µM
[4]; [46]
  CC50: 12.9 µM
[4]; read-out: Log TGI (converted)
  TGI: 2.34 µM
[5]
  GI50: 2.57 µM
[5]; [46]
  CC50: 74.1 µM
[5]; read-out: Log TGI (converted)
  TGI: 12.6 µM
[6]
  GI50: 1.35 µM
[6]; [46]
  CC50: 5.75 µM
[6]; read-out: Log TGI (converted)
  TGI: 2.75 µM
[7]
  GI50: 1.91 µM
[7]; [46]
  CC50: 7.41 µM
[7]; read-out: Log TGI (converted)
  TGI: 3.72 µM
[8]
  GI50: 1.82 µM
[8]; read-out: Log TGI (converted)
  TGI: 3.8 µM
[9]
  GI50: 2 µM
[9]; [46]
  CC50: 9.12 µM
[9]; read-out: Log TGI (converted)
  TGI: 4.27 µM
[10]
  GI50: 3.55 µM
[10]; [46]
  CC50: 42.7 µM
[10]; read-out: Log TGI (converted)
  TGI: 10.5 µM
[11]
  GI50: 1.66 µM
[11]; [46]
  CC50: 8.71 µM
[11]; read-out: Log TGI (converted)
  TGI: 3.8 µM
[12]
  GI50: 1.74 µM
[12]; [46]
  CC50: 11.2 µM
[12]; read-out: Log TGI (converted)
  TGI: 4.17 µM
[13]
  GI50: 1.45 µM
[13]; [46]
  CC50: 5.62 µM
[13]; read-out: Log TGI (converted)
  TGI: 2.82 µM
[14]
  GI50: 0.794 µM
[14]; [46]
  CC50: 7.41 µM
[14]; read-out: Log TGI (converted)
  TGI: 2.57 µM
[15]
  GI50: 1.62 µM
[15]; [46]
  CC50: 5.62 µM
[15]; read-out: Log TGI (converted)
  TGI: 3.02 µM
[16]
  GI50: 0.468 µM
[16]; [46]
  CC50: 4.07 µM
[16]; read-out: Log TGI (converted)
  TGI: 1.62 µM
[17]
  GI50: 0.759 µM
[17]; [46]
  CC50: 5.25 µM
[17]; read-out: Log TGI (converted)
  TGI: 2.14 µM
[18]
  GI50: 0.257 µM
[18]; [46]
  CC50: > 100 µM
[18]; read-out: Log TGI (converted)
  TGI: 1.62 µM
[19]
  GI50: 1.41 µM
[19]; [46]
  CC50: 21.4 µM
[19]; read-out: Log TGI (converted)
  TGI: 3.89 µM
[20]
  GI50: 1.2 µM
[20]; [46]
  CC50: 7.24 µM
[20]; read-out: Log TGI (converted)
  TGI: 2.95 µM
[21]
  GI50: 0.741 µM
[21]; [46]
  CC50: 4.57 µM
[21]; read-out: Log TGI (converted)
  TGI: 2.04 µM
[22]
  CC50: 3.02 µM
[23]
  GI50: 1.82 µM
[23]; [46]
  CC50: 5.89 µM
[23]; read-out: Log TGI (converted)
  TGI: 3.31 µM
[24]
  GI50: 1.23 µM
[24]; [46]
  CC50: 5.01 µM
[24]; read-out: Log TGI (converted)
  TGI: 2.45 µM
[25]
  GI50: 0.355 µM
[25]; [46]
  CC50: 4.47 µM
[25]; read-out: Log TGI (converted)
  TGI: 1.35 µM
[26]
  GI50: 2.4 µM
[26]; [46]
  CC50: 42.7 µM
[26]; read-out: Log TGI (converted)
  TGI: 6.46 µM
[27]
  GI50: 1.74 µM
[27]; [46]
  CC50: 5.89 µM
[27]; read-out: Log TGI (converted)
  TGI: 3.24 µM
[28]
  GI50: 2.57 µM
[28]; [46]
  CC50: 50.1 µM
[28]; read-out: Log TGI (converted)
  TGI: 8.13 µM
[29]
  GI50: 0.295 µM
[29]; [46]
  CC50: 3.47 µM
[29]; read-out: Log TGI (converted)
  TGI: 1.02 µM
[30]
  GI50: 0.813 µM
[30]; [46]
  CC50: 56.2 µM
[30]; read-out: Log TGI (converted)
  TGI: 4.68 µM
[31]
  GI50: 1.86 µM
[31]; [46]
  CC50: 8.91 µM
[31]; read-out: Log TGI (converted)
  TGI: 4.07 µM
[32]
  GI50: 1.32 µM
[32]; [46]
  CC50: > 100 µM
[32]; read-out: Log TGI (converted)
  TGI: 3.63 µM
[33]
  GI50: 3.02 µM
[33]; [46]
  CC50: 37.2 µM
[33]; read-out: Log TGI (converted)
  TGI: 10.2 µM
[34]
  GI50: 0.603 µM
[34]; [46]
  CC50: 4.37 µM
[34]; read-out: Log TGI (converted)
  TGI: 1.91 µM
[35]
  GI50: 1.55 µM
  LC50: 6.46 µM
[35]; read-out: Log TGI (converted)
  TGI: 3.16 µM
[36]
  GI50: 1.17 µM
  LC50: 6.61 µM
[36]; read-out: Log TGI (converted)
  TGI: 2.82 µM
[37]
  GI50: 0.977 µM
  LC50: 18.2 µM
[37]; read-out: Log TGI (converted)
  TGI: 3.63 µM
[38]
  GI50: 1.32 µM
  LC50: 5.5 µM
[38]; read-out: Log TGI (converted)
  TGI: 2.69 µM
[39]
  GI50: 0.813 µM
  LC50: 51.3 µM
[39]; read-out: Log TGI (converted)
  TGI: 9.33 µM
[40]
  GI50: 1.91 µM
  LC50: 8.91 µM
[40]; read-out: Log TGI (converted)
  TGI: 4.07 µM
[41]
  GI50: 1.66 µM
  LC50: 6.31 µM
[41]; read-out: Log TGI (converted)
  TGI: 3.24 µM
[42]
  GI50: 1.74 µM
  LC50: 19.1 µM
[42]; read-out: Log TGI (converted)
  TGI: 4.37 µM
[43]
  GI50: 1.55 µM
  LC50: 6.17 µM
[43]; read-out: Log TGI (converted)
  TGI: 3.09 µM
[44]
  GI50: 1.26 µM
  LC50: 6.17 µM
[44]; read-out: Log TGI (converted)
  TGI: 2.75 µM
[45]
  GI50: 1.17 µM
  LC50: 85.1 µM
[45]; read-out: Log TGI (converted)
  TGI: 6.61 µM
